Consider five molecules from patent publication US8518959B2, “Quinoxaline derivatives as antitumor agents” (Prolexys Pharmaceuticals, Inc., priority 2005, dated 2013).

Assay [1] deals with HT-1080 xenografts. Put plainly: HT-1080 tumor treatment study. In kind it is in vivo, mouse. The note with it: nude mice, 50 or 100 mg/Kg QD×5 days IP. As for the experimental part: • Nude Balb/c (Nu/Nu strain, Charles River Laboratories), female, 5-6 week old (˜20 g average body weight). Formulation of Test Articles:
Both compounds were formulated in an identical manner. For the 100 mg/kg dose level, each compound was delivered at a concentration of 10.0 mg/ml, in an injection volume of 0.2 ml. For the 50 mg/kg dose level, each compound was delivered at a concentration of 5.0 mg/ml, in an injection volume of 0.2 ml. For both dose levels, the vehicle contained 0.025% Tween-80, 0.01% benzyl alcohol, 35 mM acetic acid (HOAc), 100 mM potassium phosphate buffer, and 32 mM sucrose, pH 6.5.
• A: PRLX compound 6@100 mg/Kg, QD×5 days, IP, n=8 • B: PRLX compound 6@50 mg/Kg, QD×5 days, IP, n=8 • C: PRLX compound 5@100 mg/Kg, QD×5 days, IP, n=8 • D: PRLX compound 5@50 mg/Kg, QD×5 days, IP, n=8 • E: Vehicle Control, QD×5 days, IP, n=8 • F: Untreated Control, n=8 Treatment Schedule: […]
Starting on Day 1, all animals were weighed, and tumor dimensions (length (L) and width (W)) were measured, every other day. […]
The resulting tumor volume values were averaged for each study group for each time point, and were then plotted against time. Variance was expressed as standard error of the mean (±SEM).

Assay [2] concerns PANC-1 xenografts. As to the kind of experiment: PANC-1 tumor treatment study. The format is in vivo, mouse. The note with it: nude mice, once a day for five consecutive days. As for the experimental part: The experimental plan for the PANC-1 study was essentially identical to that of the HT-1080 study outlined above in Example 10 with the following exceptions: approximately 3040 mg fragment of passaged PANC-1 tumor tissue was implanted subcutaneously in the right flank of an immunodeficient nude mouse. Tumor growth was monitored daily and when the tumors reached approximately 100 mm^3, animals harboring similarly sized tumors were group matched and compound dosing was initiated. Administration of compound 5 occurred once a day for five consecutive days at the doses listed below. In the PANC-1 xenografts, gemcitabine, administered at the maximum tolerated dose for the model, was used as a control. The gemcitabine regimen was 180 mg/kg […] on every third day over a period of 9 days.

In assay [3] the test system is BJ-TERT/LT/ST/RAS^V12 cells. As to the kind of experiment: Nuclear morphology assay. The note with it: fluorescence microscopy, 18 hours. The format is cell-based, human. The source says: Applicants sought to characterize the type of cell death induced by CPT and erastin in tumorigenic BJ-TERT/LT/ST/RAS^V12 cells. […] To determine whether erastin or CPT induces apoptosis in their system, Applicants monitored the nuclear morphology of CPT- and erastin-treated tumorigenic cells using fluorescence microscopy. […] Since nuclear morphological change is required of apoptotic cells, Applicants conclude that cell death induced by erastin is non-apoptotic. […] Additionally, nuclei remained intact in erastin-treated tumor cells (FIG. 9).
200,000 tumorigenic BJ-TERT/LT/ST/RAS^V12 cells were seeded in 2 mL on glass coverslips in each well of a six-well dish, treated with nothing (NT), 9 μM erastin or 1.1 μM camptothecin (CPT) in growth medium for 18 hours while incubating at 37° C. with 5% CO2. Nuclei were stained with 25 μg/mL Hoechst 33342 (Molecular Probes) and viewed using an oil immersion 100× objective on a fluorescence microscope.

Assay [4] concerns BJ-TERT/LT/ST/RAS^V12 tumorigenic cells. Put plainly: Calcein AM viability assay, dilution series. The format is cell-based, human. The note with it: ST- and RAS^V12-dependent. The source says:
(§1) Described here is work carried out to identify compounds with increased potency or activity in the presence of hTERT, LT, ST, E6, E7 or RAS^V12. Although the work described herein made use of hTERT, LT, ST, E6, E7 and RAS^V12 as transforming genes, future studies can make use of a wide variety of cancer-associated alleles using this methodology in order to define the signaling networks that involve many oncogenes and tumor suppressors. Engineered cell lines with these genetic elements were used to screen 23,550 compounds, including 20,000 compounds from a combinatorial library, 1,990 compounds from the National Cancer Institute diversity collection, and 1,540 biologically active known compounds that were selected and purchased by Applicant and formatted into a screenable collection. […] Cell viability was measured using the dye calcein acetoxymethyl ester (calcein AM) (Wang et al., 1993, Hum. Immunol. 37, 264-270), which is a non-fluorescent compound that freely diffuses into cells. […]
(§2) Calcein acetoxylmethyl ester (AM) is a cell membrane-permeable, non-fluorescent compound that is cleaved by intracellular esterases to form the anionic, cell-impermeable, fluorescent compound calcein. […] Total fluorescence intensity in each well was recorded on a Packard Fusion platereader, and converted to a percent inhibition of signal by subtracting the instrument background and dividing by the average signal obtained when cells were not treated with any compound. […]
(§3) Mean RFU (relative fluorescence units) for untreated cells was calculated by averaging columns 1, 2, and 23 (wells with cells but lacking compounds). The calcein background was calculated by averaging column 24 (wells with calcein, but lacking cells). Percentage inhibition of each well was calculated as [1−(RFU−calcein control)/(untreated cell−calcein control)*100]. […]

For assay [5], the system named is BJ primary cells. Put plainly: Calcein AM viability assay, dilution series. The format is cell-based, human.
Source text: as §1, §2, §3

With `CCOc1ccccc1-n1c(CN2CCNCC2)nc2ccccc2c1=O` [Compound 5, 3-(2-ethoxyphenyl)-2-(piperazin-1-ylmethyl)quinazolin-4(3H)-one], the “Antitumor effect in HT-1080 xenografts” value in assay [1] is given as “induction of robust tumor regression”. In addition, the “Antitumor effect in PANC-1 xenografts” value in assay [2] is listed as “induction of tumor regression”.
As for `CC[C@@]1(O)C(=O)OCc2c1cc1n(c2=O)Cc2cc3ccccc3nc2-1` [Camptothecin], the “Type of cell death / nuclear morphology” value in assay [3] is “karyorhexis and margination of chromatin were clearly visible”.
On to `CCOc1ccccc1-n1c(C(C)N2CCNCC2)nc2ccccc2c1=O` (centres unmarked) [Compound 6], for which the “Antitumor effect in HT-1080 xenografts” value in assay [1] is “induction of tumor growth inhibition”. In assay [2], the “Antitumor effect in PANC-1 xenografts” value was “induction of tumor growth inhibition”.
For the molecule `CCOc1ccccc1-n1c(C(C)N2CCN(C(=O)COc3ccc(Cl)cc3)CC2)nc2ccccc2c1=O` (centres unmarked) [Erastin], the “Time to irreversible cell death” value in assay [4] was 12 to 24 h.
Consider `C=C1[C@@H](O)[C@@H]2O[C@]3(CC[C@H](/C=C/[C@@H](C)[C@@H]4CC(C)=C[C@@]5(O[C@H](C[C@@](C)(O)C(=O)O)CC[C@H]5O)O4)O3)CC[C@H]2O[C@@H]1[C@@H](O)C[C@H](C)[C@H]1O[C@@]2(CCCCO2)CC[C@H]1C` [okadaic acid], for which, in assay [5] (okadaic acid 3.4 nM with camptothecin), the “Sensitization of BJ primary cells to camptothecin” value is recorded as “renders BJ cells sensitive to camptothecin”. For the same molecule, the “Effect on calcein AM viability staining of BJ cells” value in assay [5] (okadaic acid alone at 3.4 nM) is “no effect on its own”.
